Like-named read-outs stand apart in the source and are kept apart here.
Columns and labels:
Format in all cases: cell-based
EJ-1 cells / γδ T cells = assay: TNF-α production from γδ T cells stimulated by compound-pretreated EJ-1 cells (indirect antitumor action, ELISA); details: EJ-1 pretreated 4 hr with compound, 16 hr with γδ T cells, TNF-α ELISA, read-out: TNF-α50
Experimental: The indirect antitumor action of bisphosphonic acid POM esters and bisphosphonic acids was studied by comparison using EJ-1. In principle, EJ-1 is treated with a compound, washed, and reacted with γδ T cells, and the cytotoxic ability is studied by comparison, by quantifying TNF-α produced by γδ T cells during cell disordering. TNF-α is generally used as an index of γδ T cell induction ability and/or proliferative capacity, and γδ T cells are considered to be induced and/or proliferated in proportion to the TNF-α amount (Journal of Immunology, 154, 5986-5994 (1995)). Since the produced TNF-α is what is called a tumor necrosis factor, it is considered to have an action to lower proliferation of cancer cells or induce cell death.
Thereto was added a solution (500 μl) of compounds 3, 5, 6, 7, which are bisphosphonic acid POM ester derivatives, obtained by serially diluting 10 mM stock solution 10-fold from 20 μM, or a solution (500 μl) of bisphosphonic acid 10, 12, 13, 14 compound obtained by serially diluting 10-fold from 200 μM, and the cells were suspended well. These conical tubes were stood at 37° C. for 4 hr, and the cells were washed 3 times with 5 ml of culture medium. To these cells was added 500 μl of medium, and the cells were suspended well. […] The cell culture medium was suspended well, and the plate was centrifuged at 1,700 rpm, 4° C. for 2 min and the culture supernatant (150 μl) was taken and placed in another round-bottomed 96 well plate. The plate was frozen at −80° C. overnight, left standing at room temperature for 1 hr, stirred well and 100 μl thereof was subjected to ELISA of TNF-α. The content of TNF-α was calculated from the analytical curve of TNF-α. These were performed in triplicate, and a graph showing bisphosphonic acid POM ester derivative and the corresponding bisphosphonic acid as one pair was plotted. […] The results of bisphosphonic acid POM ester derivative are shown by -●-, and the results of bisphosphonic acid are shown by -◯-.
The indirect antitumor action of bisphosphonic acid POM esters and bisphosphonic acids was quantitatively studied by comparison using EJ-1. […] Thereto was added a solution (500 μl) of a bisphosphonic acid POM ester derivative obtained by serially diluting 10 mM stock solution 10-fold from 20 μM, or a bisphosphonic acid solution (500 μl) serially diluted 10-fold from 200 μM was added, and the cells were suspended well. These conical tubes were stood at 37° C. for 4 hr, and the cells were washed 3 times with 5 ml of culture medium. To these cells was added 500 μl of medium, and the cells were suspended well. […] The cell culture medium was suspended well, and the plate was centrifuged at 1,700 rpm, 4° C. for 2 min and the culture supernatant (150 μl) was taken and placed in another round-bottomed 96 well plate. The plate was frozen at −80° C. overnight, left standing at room temperature for 1 hr, stirred well and 100 μl thereof was subjected to ELISA of TNF-α. The content of TNF-α was calculated from the analytical curve of TNF-α. These were performed in triplicate, and a half of the concentration of compounds 1-7, which are bisphosphonic acid POM ester derivatives, and compounds 8-14, which are bisphosphonic acids, necessary for producing the maximum amount of TNF-α from γδ T cells was calculated as TNF-α50, and summarized in Table 6.
Therefore, the TNF-α50 value of various bisphosphonic acid POM ester derivatives was calculated. […] Thereto was added a solution (500 μl) of compounds 1-7 and 15-39, which are bisphosphonic acid POM ester derivatives, and compound 42, which is other bisphosphonic acid ester derivative, obtained by serially diluting 10 mM stock solution 10-fold from 20 μM, and the cells were suspended well. These conical tubes were stood at 37° C. for 4 hr, and the cells were washed 3 times with 5 ml of culture medium. To these cells was added 500 μl of medium, and the cells were suspended well. […]

U937 cells = assay: U937 cell growth inhibition (direct antitumor action, CellTiterGlo); details: U937 cell growth inhibition, 4 days culture
Experimental: (§1) The direct antitumor action of bisphosphonic acid POM ester and bisphosphonic acid was studied by comparison using U937.
(§2) The direct antitumor action of various bisphosphonic acid POM esters was studied by comparison using U937 and EJ-1. The measurement was performed according to Experimental Example 2 and Experimental Example 4.

EJ-1 cells = assay: EJ-1 cell growth inhibition (direct antitumor action, CellTiterGlo); details: EJ-1 (bladder cancer) growth inhibition, 4 days culture
Experimental: as §1
(§3) The direct antitumor action of bisphosphonic acid POM ester derivatives and bisphosphonic acids was studied by comparison using EJ-1. It was performed in the same manner as in Experimental Example 1 except that EJ-1 was used as the cell to be used. For recovery of the cells, a conventional EDTA trypsin treatment was performed.
as §3, with “POM esters” for “POM ester derivatives”, “Example 2” for “Example 1”
as §2

| EC50 (EJ-1 cells / γδ T cells; EJ1) [µM] | IC50 (U937 cells; Homo sapiens, U-937, 96 h) [µM] | IC50 (EJ-1 cells; EJ1, 96 h) [µM] | SMILES | EC50 (EJ-1 cells / γδ T cells) [µM] | IC50 (U937 cells) [µM] | IC50 (EJ-1 cells) [µM] |
| --- | --- | --- | --- | --- | --- | --- |
|  |  |  | Cc1cccc(NCC(P(=O)(OCOC(=O)C(C)(C)C)OCOC(=O)C(C)(C)C)P(=O)(OCOC(=O)C(C)(C)C)OCOC(=O)C(C)(C)C)n1 [Compound 20, tetrakispivaloyloxymethyl 2-(6-methylpyridin-2-ylamino)ethylidene-1,1-bisphosphonate] | 3.7 | 6.9 | 16 |
|  |  |  | CC(C)(C)C(=O)OCOP(=O)(OCOC(=O)C(C)(C)C)C(CNc1ccc2ccccc2n1)P(=O)(OCOC(=O)C(C)(C)C)OCOC(=O)C(C)(C)C [Compound 30, tetrakispivaloyloxymethyl 2-(quinolin-2-ylamino)ethylidene-1,1-bisphosphonate] | > 10 | 6.6 | 10 |
| 48 | 29 | 7.9 | Cc1ccc(NCC(P(=O)(O)O)P(=O)(O)O)nc1 [Compound 10, 2-(methylpyridin-2-ylamino)ethylidene-1,1-bisphosphonic Acid, reference compound] |  |  |  |
